The AC50 is the concentration giving half of the maximal activity seen. The term Ki denotes a measure of affinity in units of concentration, obtained from inhibition or displacement.

The results in this text go back to patent US20240083890A1, “MACROCYCLIC BRANCHED 3-FLUORO-BUT-3-ENAMIDES AS INHIBITORS OF MCL-1” (JANSSEN PHARMACEUTICA NV, priority 2020, published 2024).

Structures are written as SMILES. Like-named read-outs stand apart in the source and are kept apart here.

The test system of test [1] is MOLP-8 human multiple myeloma cell line. In words: Caspase-Glo 3/7 apoptosis induction assay in MOLP-8 cells. The format is cell-based. Particulars: caspase-3/7 activation, 2 hours incubation at 37° C., averaged over all runs on all batches, read-out: MOLP8 AC50. From the text:
MCL-1 is a regulator of apoptosis and is highly over-expressed in tumor cells that escape cell death. The assay evaluates the cellular potency of small-molecule compounds targeting regulators of the apoptosis pathway, primarily MCL-1, Bfl-1, Bcl-2, and other proteins of the Bcl-2 family. Protein-protein inhibitors disrupting the interaction of anti-apoptotic regulators with BH3-domain proteins initiate apoptosis.
The Caspase-Glo® 3/7 Assay is a luminescent assay that measures caspase-3 and -7 activities in purified enzyme preparations or cultures of adherent or suspension cells. The assay provides a proluminescent caspase-3/7 substrate, which contains the tetrapeptide sequence DEVD. This substrate is cleaved to release aminoluciferin, a substrate of luciferase used in the production of light. Addition of the single Caspase-Glo® 3/7 Reagent in an “add-mix-measure” format results in cell lysis, followed by caspase cleavage of the substrate and generation of a “glow-type” luminescent signal.
This assay uses the MOLP-8 human multiple myeloma cell line, which is sensitive to MCL-1 inhibition.
Cell cultures were maintained between 0.2 and 2.0×10^6 cells/mL. The cells were harvested by collection in 50 mL conical tubes. The cells were then pelleted at 500 g for 5 mins before removing supernatant and resuspension in fresh pre-warmed culture medium. The cells were counted and diluted as needed.
The assay reagent was prepared by transferring the buffer solution to the substrate vial and mixing. The solution may be stored for up to 1 week at 4° C. with negligible loss of signal.
Compounds were delivered in assay-ready plates (Proxiplate) and stored at −20° C.
Assays always include 1 reference compound plate containing reference compounds. The plates were spotted with 40 nL of compounds (0.5% DMSO final in cells; serial dilution; 30 μM highest conc. 1/3 dilution, 10 doses, duplicates). The compounds were used at room temperature and 4 μL of pre-warmed media was added to all wells except column 2 and 23. The negative control was prepared by adding 1% DMSO in media. The positive control was prepared by adding the appropriate positive control compound in final concentration of 60 μM in media. The plate was prepared by adding 4 μL negative control to column 23, 4 μL positive control to column 2, and 4 μL cell suspension to all wells in the plate. The plate with cells was then incubated at 37° C. for 2 hours. The assay signal reagent is the Caspase-Glo solution described above, and 8 μL was added to all wells. The plates were then sealed and measured after 30 minutes.
The activity of a test compound was calculated as percent change in apoptosis induction as follows: • LC=median of the Low Control values • =Central Reference in Screener • =DMSO • =0% • HC=Median of the High Control values • =Scale Reference in Screener • =30 μM of positive control • =100% apoptosis induction
% Effect (AC50)=100−((sample-LC)/(HC-LC))*100
% Control=(sample/HC)*100
% Control min=((sample-LC)/(HC-LC))*100
Table: Measured AC50 for Representative Compounds of Formula (I). Averaged values are reported over all runs on all batches of a particular compound.

The target of test [2] is Mcl-1 (Homo sapiens (Human), UniProt Q07820). In words: Terbium labeled Mcl-1 HTRF binding assay, displacement of Cy5-labeled BIM BH3 peptide. Particulars: Ki=IC50/(1+[L]/Kd), [L]=8 nM, Kd=10 nM; 25 pM Tb-Mcl-1, 8 nM Cy5 Bim peptide, 60 min; read-out: Tb-MCL1 Ki. On the procedure: Terbium labeled Myeloid Cell Leukemia 1(Mcl-1) homogeneous time-resolved fluorescence (HTRF) binding assay utilizing the BIM BH3 peptide (H2N—(C/Cy5Mal) WIAQELRRIGDEFN-OH) as the binding partner for Mcl-1.
Chain of Mcl-1 (Q07820 whole entry, the tested form may be a part): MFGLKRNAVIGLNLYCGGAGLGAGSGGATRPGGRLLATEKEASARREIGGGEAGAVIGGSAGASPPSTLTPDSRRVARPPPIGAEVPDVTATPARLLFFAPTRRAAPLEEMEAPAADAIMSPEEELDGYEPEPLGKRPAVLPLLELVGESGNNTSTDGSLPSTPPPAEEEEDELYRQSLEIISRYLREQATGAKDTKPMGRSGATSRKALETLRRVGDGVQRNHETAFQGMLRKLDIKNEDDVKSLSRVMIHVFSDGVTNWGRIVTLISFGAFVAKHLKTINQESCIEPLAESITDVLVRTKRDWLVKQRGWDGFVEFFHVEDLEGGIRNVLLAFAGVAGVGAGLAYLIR
This assay evaluated inhibition of the BH3 domain: Mcl-1 interaction by measuring the displacement of Cy5-labeled BIM BH3 peptide (H2N—(C/Cy5Mal) WIAQELRRIGDEFN-OH) in the HTRF assay format.
The following assay and stock buffers were prepared for use in the assay: (a) Stock buffer: 10 mM Tris-HCl, pH=7.5+150 mM NaCl, filtered, sterilized, and stored at 4° C.; and (b) 1× assay buffer, where the following ingredients were added fresh to stock buffer: 2 mM dithiothreitol (DTT), 0.0025% Tween-20, 0.1 mg/mL bovine serum albumin (BSA). The 1× Tb-Mcl-1+Cy5 Bim peptide solution was prepared by diluting the protein stock solution using the 1× assay buffer (b) to 25 pM Tb-Mcl-1 and 8 nM Cy5 Bim peptide.
Using the Acoustic ECHO, 100 nL of 100× test compound(s) were dispensed into individual wells of a white 384-well Perkin Elmer Proxiplate, for a final compound concentration of 1× and final DMSO concentration of 1%. Inhibitor control and neutral control (NC, 100 nL of 100% DMSO) were stamped into columns 23 and 24 of assay plate. Into each well of the plate was then dispensed 10 μL of the 1× Tb-Mcl-1+Cy5 Bim peptide solution. The plate was centrifuged with a cover plate at 1000 rpm for 1 minute, then incubated for 60 minutes at room temperature with plates covered.
The TR-FRET signal was read on an BMG PHERAStar FSX MicroPlate Reader at room temperature using the HTRF optic module (HTRF: excitation: 337 nm, light source: laser, emission A: 665 nm, emission B: 620 nm, integration start: 60 μs, integration time: […]).
The BMG PHERAStar FSX MicroPlate Reader was used to measure fluorescence intensity at two emission wavelengths—665 nm and 620 nm—and report relative fluorescence units (RFU) for both emissions, as well as a ratio of the emissions (665 nm/620 nm)*10,000. The RFU values were normalized to percent inhibition as follows:
% inhibition (((NC−IC)−(compound-IC))/(NC−IC))*100
where IC (inhibitor control, low signal)=mean signal of 1× Tb-MCl-1+Cy5 Bim peptide+inhibitor control or 100% inhibition of Mel-1; NC (neutral control, high signal)=mean signal 1× Tb-MCI-1+Cy5 Bim peptide with DMSO only or 0% inhibition
An 11-point dose response curve was generated to determine IC50 values (using GenData) based on the following equation:
Y=Bottom+(Top-Bottom)/(1+10^((log IC50−X)*HillSlope))
where Y=% inhibition in the presence of X inhibitor concentration; Top=100% inhibition derived from the IC (mean signal of Mcl-1+inhibitor control); Bottom=0% inhibition derived from the NC (mean signal of Mcl-1+DMSO); Hillslope=Hill coefficient; and IC50=concentration of compound with 50% inhibition in relation to top/neutral control (NC).
In this assay [L]=8 nM and Kd=10 nM
Representative compounds of the present invention were tested according to the procedure as described above, with results as listed in the Table below (n.d. means not determined).
Background: Time-resolved FRET reads energy transfer from a long-lived donor to a nearby acceptor.

`COC[C@]1([C@@H]2COC(C)(C)O2)/C(F)=C/C[C@H](C)[C@@H](C)S(=O)(=O)NC(=O)c2ccc3c(c2)N(C[C@@H]2CCN21)C[C@@]1(CCCc2cc(Cl)ccc21)CO3` [Compound 7]: the half-maximal activity concentration (AC50) in test [1] (Homo sapiens, MOLP-8) worked out at 134 nM. Further, the inhibition constant (Ki) in test [2] amounted to 0.221 nM.
As for `C[C@@H]1[C@@H](C)C/C=C(\F)[C@@]2(COC(C)(C)OC[C@@H]2O)N2CCC[C@H]2CN2C[C@@]3(CCCc4cc(Cl)ccc43)COc3ccc(cc32)C(=O)NS1(=O)=O` [Compound 11], in test [1] (Homo sapiens, MOLP-8), the concentration at half-maximal activity (AC50) came out at 96.5 nM. Moreover, the Ki in test [2] worked out at 0.172 nM.
Take `COCCOCCN(C)C[C@H](O)[C@H]1/C(F)=C/C[C@H](C)[C@@H](C)S(=O)(=O)NC(=O)c2ccc3c(c2)N(C[C@@H]2CCN21)C[C@@]1(CCCc2cc(Cl)ccc21)CO3` [Compound 30]: the AC50 in test [1] (Homo sapiens, MOLP-8) was 944 nM. Further, in test [2], the inhibitory constant (Ki) is 0.036 nM.
For `CO[C@@H](CO)[C@@]1(CO)/C(F)=C/C[C@H](C)[C@@H](C)S(=O)(=O)NC(=O)c2ccc3c(c2)N(C[C@@H]2CCN21)C[C@@]1(CCCc2cc(Cl)ccc21)CO3` [Compound 8] the same measures were 3960 nM and 0.357 nM.
Turning to `C[C@@H]1[C@@H](C)C/C=C(\F)[C@H]([C@@H](O)CN2CCOCC2)N2CCC[C@H]2CN2C[C@@]3(CCCc4cc(Cl)ccc43)COc3ccc(cc32)C(=O)NS1(=O)=O` [Compound 22], in test [1] (Homo sapiens, MOLP-8), the concentration at half-maximal activity (AC50) is 239 nM. The inhibitory constant (Ki) in test [2] was 0.08 nM.
For the compound `CO[C@H](C)[C@H]1/C(F)=C/C[C@H](C)[C@@H](C)S(=O)(=O)NC(=O)c2ccc3c(c2)N(C[C@@H]2CCCN21)C[C@@]1(CCOc2cc(Cl)ccc21)CO3` [Compound 32], the concentration at half-maximal activity (AC50) in test [1] (Homo sapiens, MOLP-8) is 3710 nM. Also, the inhibitory constant (Ki) in test [2] worked out at 1.93 nM.
In the same order, the values of `C[C@@H]1[C@@H](C)C/C=C(\F)C2(COC(C)(C)OC2)N2CCC[C@H]2CN2C[C@@]3(CCCc4cc(Cl)ccc43)COc3ccc(cc32)C(=O)NS1(=O)=O` [Compound 14] are 759 nM and 0.241 nM.
For the compound `C[C@@H]1[C@@H](C)C/C=C(\F)[C@H]([C@@H](O)CN(C)CCC2CCOCC2)N2CC[C@H]2CN2C[C@@]3(CCCc4cc(Cl)ccc43)COc3ccc(cc32)C(=O)NS1(=O)=O` [Compound 27], in test [1] (Homo sapiens, MOLP-8), the AC50 was determined as 746 nM. For the same compound, in test [2], the Ki is 0.053 nM.
With `C[C@@H]1[C@@H](C)C/C=C(\F)[C@H]([C@@H](O)Cn2cccn2)N2CC[C@H]2CN2C[C@@]3(CCCc4cc(Cl)ccc43)COc3ccc(cc32)C(=O)NS1(=O)=O` [Compound 19], the AC50 in test [1] (Homo sapiens, MOLP-8) stood at 126 nM. Besides, the Ki in test [2] turned out to be 0.049 nM.
For `C[C@H](O)[C@@H]1/C(F)=C/C[C@H](C)[C@@H](C)S(=O)(=O)NC(=O)c2ccc3c(c2)N(C[C@@H]2CCCN21)C[C@@]1(CCOc2cc(Cl)ccc21)CO3` [Compound 18], in test [1], the AC50 stood at 3420 nM. Also, in test [2], the Ki came out at 0.606 nM.
Regarding `COC[C@H](OC)[C@@]1(COC)/C(F)=C/C[C@H](C)[C@@H](C)S(=O)(=O)NC(=O)c2ccc3c(c2)N(C[C@@H]2CCN21)C[C@@]1(CCCc2cc(Cl)ccc21)CO3` [Compound 15], the AC50 in test [1] (Homo sapiens, MOLP-8) stood at 503 nM.
As to `C[C@H](O)[C@H]1/C(F)=C/C[C@H](C)[C@@H](C)S(=O)(=O)NC(=O)c2ccc3c(c2)N(C[C@@H]2CCCN21)C[C@@]1(CCCc2cc(Cl)ccc21)CO3` [Compound 4], the AC50 in test [1] (Homo sapiens, MOLP-8) was found to be 238 nM. In addition, the Ki in test [2] was determined as 0.236 nM.
In the same order, the values of `C[C@H](O)[C@H]1/C(F)=C/C[C@H](C)[C@@H](C)S(=O)(=O)NC(=O)c2ccc3c(c2)N(C[C@@H]2CCN21)C[C@@]1(CCCc2cc(Cl)ccc21)CO3` [Compound 2] are 122 nM and 0.106 nM.
In the same order, the values of `C[C@@H]1[C@@H](C)C/C=C(\F)C2(COC(C)(C)OC2)N2CC[C@H]2CN2C[C@@]3(CCCc4cc(Cl)ccc43)COc3ccc(cc32)C(=O)NS1(=O)=O` [Compound 13] are 1110 nM and 1.77 nM.
For the compound `C[C@@H]1[C@@H](C)C/C=C(\F)[C@](CO)([C@@H]2COC(C)(C)O2)N2CC[C@H]2CN2C[C@@]3(CCCc4cc(Cl)ccc43)COc3ccc(cc32)C(=O)NS1(=O)=O` [Compound 10], the AC50 in test [1] (Homo sapiens, MOLP-8) came out at 553 nM.
`COCC(COC)OC[C@H](O)[C@H]1/C(F)=C/C[C@H](C)[C@@H](C)S(=O)(=O)NC(=O)c2ccc3c(c2)N(C[C@@H]2CCN21)C[C@@]1(CCCc2cc(Cl)ccc21)CO3` [Compound 24]: in test [1] (Homo sapiens, MOLP-8), the AC50 is 46.3 nM. The inhibitory constant (Ki) in test [2] was 0.036 nM.
For `C[C@@H]1[C@@H](C)C/C=C(\F)[C@H]([C@@H](C)O)N2CCC[C@H]2CN2C[C@@]3(CCOc4cc(Cl)ccc43)COc3ccc(cc32)C(=O)NS1(=O)=O` [Compound 17] the same measures were 3350 nM and 2.41 nM.
In the same order, the values of `C[C@@H]1[C@@H](C)C/C=C(\F)[C@H]([C@@H](O)CN(C)C)N2CC[C@H]2CN2C[C@@]3(CCCc4cc(Cl)ccc43)COc3ccc(cc32)C(=O)NS1(=O)=O` [Compound 31] are 1020 nM and 0.041 nM.
In the same order, the values of `C[C@@H]1[C@@H](C)C/C=C(\F)C(C(O)COCC2CCOCC2)N2CC[C@H]2CN2C[C@@]3(CCCc4cc(Cl)ccc43)COc3ccc(cc32)C(=O)NS1(=O)=O` (single isomer, unassigned) [Compound 5] are 238 nM and 0.23 nM.
As to `COCCCN(CCOC)C[C@H](O)[C@H]1/C(F)=C/C[C@H](C)[C@@H](C)S(=O)(=O)NC(=O)c2ccc3c(c2)N(C[C@@H]2CCN21)C[C@@]1(CCCc2cc(Cl)ccc21)CO3` [Compound 26], the concentration at half-maximal activity (AC50) in test [1] (Homo sapiens, MOLP-8) came out at 123 nM. The Ki in test [2] was found to be 0.044 nM.
